Laboratory results as given in the supplement of paper PMC10627819.

Experiments:
Test in all cases: fitness (endpoint OD595 vs no drug) (fraction); higher = more growth
B. subtilis 168 = tested on: B. subtilis 168
Method in brief: (§1)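 Fitness was defined as the optical density at the transition into stationary phase relative to the robust mean of no-drug control wells. Values were capped at 1. Cultures were started at OD595 0.01 in 384-well plates (30 µl, or 55 µl for S. pneumoniae) in TSB, LB Lennox or CY at 37 °C. OD595 was recorded every 30 min over 14 h, with the first reading subtracted as background.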

S. aureus DSM 20231 = tested on: S. aureus DSM 20231
Method in brief: as §1

S. pneumoniae D39V = tested on: S. pneumoniae D39V
Method in brief: as §1

CN(C)[C@@H]1C(O)=C(C(N)=O)C(=O)[C@@]2(O)C(O)=C3C(=O)c4c(O)ccc(Cl)c4[C@@](C)(O)[C@H]3C[C@@H]12 [Chlortetracycline] + CCN(CC)CCOC(=O)c1ccc(N)cc1 [Procaine]
fitness
Conditions	partner 85.5 µg/mL	partner 171 µg/mL	partner 342 µg/mL
B. subtilis 168, first compound 0.0475 µg/mL	0.908	0.855	0.878
B. subtilis 168, first compound 0.095 µg/mL	0.695	0.699	0.703
B. subtilis 168, first compound 0.19 µg/mL	–	0.528	–
S. aureus DSM 20231, first compound 0.012 µg/mL	0.568	0.615	0.613
S. aureus DSM 20231, first compound 0.024 µg/mL	0.23	0.2	0.2
S. aureus DSM 20231, first compound 0.048 µg/mL	0.0791	0.058	0.0382
S. pneumoniae D39V, first compound 0.375 µg/mL	0.0458	0.0259	0.0318
S. pneumoniae D39V, first compound 0.75 µg/mL	0.055	0.0347	0.0395
S. pneumoniae D39V, first compound 1.5 µg/mL	0.0277	0.0174	0.0396

fitness, one replicate
Conditions	partner 85.5 µg/mL	partner 171 µg/mL	partner 342 µg/mL
S. aureus DSM 20231, first compound 0.006 µg/mL	0.713	0.8	0.737
S. pneumoniae D39V, first compound 0.012 µg/mL	0.95	0.897	0.929
S. pneumoniae D39V, first compound 0.024 µg/mL	0.921	0.835	0.86
S. pneumoniae D39V, first compound 0.048 µg/mL	0.835	0.726	0.736

CN(C)[C@@H]1C(O)=C(C(N)=O)C(=O)[C@@]2(O)C(O)=C3C(=O)c4c(O)ccc(Cl)c4[C@@](C)(O)[C@H]3C[C@@H]12 [Chlortetracycline] + N[C@@H]1CONC1=O [Cycloserine D]
fitness
Conditions	first compound 0.012 µg/mL	first compound 0.024 µg/mL	first compound 0.0475 µg/mL	first compound 0.048 µg/mL	first compound 0.095 µg/mL	first compound 0.19 µg/mL
B. subtilis 168, partner 0.125 µg/mL	–	–	0.936	–	0.784	0.515
B. subtilis 168, partner 0.25 µg/mL	–	–	0.894	–	0.782	0.439
B. subtilis 168, partner 0.5 µg/mL	–	–	0.899	–	0.764	0.515
S. aureus DSM 20231, partner 0.375 µg/mL	0.667	0.241	–	0.0627	–	–
S. aureus DSM 20231, partner 0.75 µg/mL	0.623	0.249	–	0.0661	–	–
S. aureus DSM 20231, partner 1.5 µg/mL	0.68	0.264	–	0.0906	–	–

S. aureus DSM 20231, first compound 0.006 µg/mL, one replicate
Conditions	fitness
partner 0.375 µg/mL	0.804
partner 0.75 µg/mL	0.782
partner 1.5 µg/mL	0.804

CC(=O)Oc1ccccc1C(=O)O [Acetylsalicylic acid] + COc1ccc(C[C@H](N)C(=O)N[C@H]2[C@@H](O)[C@H](n3cnc4c(N(C)C)ncnc43)O[C@@H]2CO)cc1 [Puromycin]
fitness
Conditions	partner 0.39 µg/mL	partner 0.78 µg/mL	partner 1 µg/mL	partner 1.56 µg/mL	partner 2 µg/mL	partner 4 µg/mL
S. aureus DSM 20231, first compound 250 µg/mL	0.894	0.947	–	0.88	–	–
S. aureus DSM 20231, first compound 500 µg/mL	0.804	0.768	–	0.799	–	–
S. pneumoniae D39V, first compound 250 µg/mL	–	–	≥ 1	–	0.954	0.898
S. pneumoniae D39V, first compound 500 µg/mL	–	–	0.915	–	0.935	0.836
S. pneumoniae D39V, first compound 1000 µg/mL	–	–	0.889	–	0.815	0.622

fitness, S. aureus DSM 20231, one replicate
Conditions	first compound 250 µg/mL	first compound 500 µg/mL	first compound 1000 µg/mL
partner 3.12 µg/mL	0.84	0.791	0.0591
partner 6.24 µg/mL	0.821	0.767	0.0807

CC(=O)Oc1ccccc1C(=O)O [Acetylsalicylic acid] + CN[C@@H]1[C@H](O)[C@H](NC)[C@H]2O[C@@]3(O)C(=O)C[C@@H](C)O[C@H]3O[C@@H]2[C@H]1O [Spectinomycin]
fitness
Conditions	partner 4 µg/mL	partner 8 µg/mL	partner 16 µg/mL
S. aureus DSM 20231, first compound 250 µg/mL	0.871	0.866	–
S. pneumoniae D39V, first compound 250 µg/mL	0.934	0.911	0.817
S. pneumoniae D39V, first compound 500 µg/mL	0.862	0.801	0.691
S. pneumoniae D39V, first compound 1000 µg/mL	0.64	0.601	0.536

fitness, S. aureus DSM 20231, one replicate
Conditions	first compound 250 µg/mL	first compound 500 µg/mL	first compound 1000 µg/mL
partner 32 µg/mL	0.541	0.631	0.101
partner 64 µg/mL	0.253	0.32	0.042

CC(=O)Oc1ccccc1C(=O)O [Acetylsalicylic acid] + CN[C@H](CC(C)C)C(=O)N[C@H]1C(=O)N[C@@H](CC(N)=O)C(=O)N[C@H]2C(=O)N[C@H]3C(=O)N[C@H](C(=O)N[C@H](C(=O)O)c4cc(O)cc(O)c4-c4cc3ccc4O)[C@H](O)c3ccc(c(Cl)c3)Oc3cc2cc(c3O[C@@H]2O[C@H](CO)[C@@H](O)[C@H](O)[C@H]2O[C@H]2C[C@](C)(N)[C@H](O)[C@H](C)O2)Oc2ccc(cc2Cl)[C@H]1O [Vancomycin]
fitness
Conditions	first compound 250 µg/mL	first compound 500 µg/mL	first compound 1000 µg/mL
S. aureus DSM 20231, partner 0.1875 µg/mL	0.871	0.79	0.592
S. aureus DSM 20231, partner 0.375 µg/mL	0.953	–	0.562
S. aureus DSM 20231, partner 0.75 µg/mL	0.947	–	–
S. pneumoniae D39V, partner 0.03125 µg/mL	0.956	0.934	0.839
S. pneumoniae D39V, partner 0.0625 µg/mL	0.894	0.885	0.826
S. pneumoniae D39V, partner 0.125 µg/mL	0.927	0.917	0.84
S. pneumoniae D39V, partner 0.25 µg/mL	0.984	0.961	0.83
S. pneumoniae D39V, partner 0.5 µg/mL	0.105	0.0715	0.0849

CC(=O)Oc1ccccc1C(=O)O [Acetylsalicylic acid] + CN(N=O)C(=O)N[C@@H](C=O)[C@@H](O)[C@H](O)[C@H](O)CO [Streptozotocin]
fitness
Conditions	first compound 250 µg/mL	first compound 500 µg/mL	first compound 1000 µg/mL
S. aureus DSM 20231, partner 0.15 µg/mL	0.778	0.635	–
S. aureus DSM 20231, partner 0.3 µg/mL	0.771	0.584	0.484
S. aureus DSM 20231, partner 0.6 µg/mL	0.64	0.578	0.414
S. pneumoniae D39V, partner 1.2 µg/mL	0.933	0.91	–
S. pneumoniae D39V, partner 2.4 µg/mL	0.934	0.9	–
S. pneumoniae D39V, partner 4.8 µg/mL	0.933	0.824	–
